This note sets out measurements from ChEMBL document CHEMBL1201862, “PubChem BioAssay data set” (2004).

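Five compound concentrations were applied to cells in 96-well plates for 48 hours; endpoints were derived by simple linear interpolation of the resulting dose-response curve. GI50: concentration for 50% inhibition of growth.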 Activity calls are given as the source filed them. Rule as the data show it: active = GI50 up to about 1.1 µM and inactive = higher.

Some test systems named below: K562; SNB-75; MOLT-4; HCC 2998; HT-29; SF-295; RXF 393; RPMI-8226; SK-MEL-28; 786-0; SNB-19; U-251; LOX IMVI; SR; NCI-H460; MDA-MB-231; DU-145; PC-3; MDA-MB-435; Hs-578T.
Experiment in all cases: inhibition of tumour cell growth, NCI panel, 48 h

Turning to `C[C@H](NC(=O)OC1C2C=CC(O)C1CC2)c1ccccc1` (stereo partly drawn), the GI50 in the assay on K562 is > 100 µM (inactive); in the assay on SNB-75, > 100 µM (inactive); in the assay on MOLT-4 it was > 100 µM (inactive); with HCC 2998, > 100 µM (inactive); in the assay on HT-29 it was > 10 µM (inactive); in the assay on SF-295, > 100 µM (inactive). Also, the GI50 in the assay with RXF 393 is > 100 µM (inactive); in the assay on RPMI-8226, 22.4 µM (inactive); with SK-MEL-28, > 100 µM (inactive); in the assay with 786-0, 38.1 µM (inactive); in the assay with SNB-19, > 100 µM (inactive); in the assay on U-251 it was > 100 µM (inactive). The GI50 in the assay with LOX IMVI is > 100 µM (inactive); in the assay on SR, 21.4 µM (inactive); in the assay with NCI-H460, 80 µM (inactive).
Turning to `CC1OC(OCC2OC(Oc3c(-c4ccc(O)cc4)oc4cc(O)cc(O)c4c3=O)C(OC3OC(C)C(O)C(O)C3O)C(O)C2O)C(O)C(O)C1O` (stereo not drawn), the GI50 with K562 is > 31.6 µM (inactive); with SNB-75, > 100 µM (inactive); with MOLT-4 it was > 100 µM (inactive); in the assay on HCC 2998, > 100 µM (inactive); in the assay with HT-29 it was > 100 µM (inactive); in the assay with SF-295 it was > 100 µM (inactive). The GI50 in the assay on RXF 393 is > 100 µM (inactive); in the assay with RPMI-8226, > 56.8 µM (inactive); with SK-MEL-28, > 100 µM (inactive); in the assay on 786-0 it was > 100 µM (inactive); in the assay on SNB-19, > 100 µM (inactive); with U-251, > 100 µM (inactive). The GI50 with LOX IMVI is > 63.1 µM (inactive); in the assay with SR, > 100 µM (inactive); in the assay on NCI-H460, > 68.9 µM (inactive).
As for `Oc1ccc(-c2nc3ccc(Cl)cc3s2)cc1`, the GI50 in the assay with MDA-MB-231 is 22.6 µM (inactive); with K562, 28.2 µM (inactive); in the assay with DU-145, 17.3 µM (inactive); with MOLT-4, 26.7 µM (inactive); in the assay on PC-3, 20.4 µM (inactive); in the assay with HT-29, 18.4 µM (inactive). In addition, the GI50 is 19.3 µM (inactive) with SF-295; 19.8 µM (inactive) in the assay on RXF 393; 20.1 µM (inactive) in the assay on RPMI-8226; 18.5 µM (inactive) with MDA-MB-435; 20.2 µM (inactive) in the assay with SNB-19; 19.7 µM (inactive) with U-251. Besides, the GI50 in the assay with LOX IMVI was 21.4 µM (inactive); in the assay with SR, 23.7 µM (inactive); with NCI-H460, 18.8 µM (inactive).
For the compound `COc1ccc2c(c1)OCC1=C2Oc2ccccc2C1`, the GI50 with MDA-MB-231 is 23.5 µM (inactive); in the assay with K562, 22.1 µM (inactive); in the assay on DU-145 it was 83.9 µM (inactive); with SNB-75, 3.12 µM (inactive); with MOLT-4, 20.3 µM (inactive); in the assay with HCC 2998 it was 24 µM (inactive). The GI50 in the assay with PC-3 is 34.8 µM (inactive); in the assay with HT-29, 26.7 µM (inactive); in the assay on SF-295, 41.5 µM (inactive); with RPMI-8226, 23.1 µM (inactive); with MDA-MB-435, 26.5 µM (inactive); in the assay with 786-0, 38 µM (inactive). Moreover, the GI50 in the assay on U-251 is 33.5 µM (inactive); with LOX IMVI, 21.4 µM (inactive); in the assay on SR it was 26.9 µM (inactive).
As for `CCOC(=O)c1c(SCc2cc(=O)[nH]c(=O)[nH]2)n(-c2ccccc2)c(=S)n(-c2ccccc2)c1=O`, the GI50 in the assay with MDA-MB-231, in the assay with K562, in the assay on DU-145, with SNB-75, in the assay with MOLT-4 and in the assay with HCC 2998 was > 100 µM (inactive) each time. In addition, the GI50 in the assay on PC-3, in the assay with HT-29, in the assay with RXF 393, in the assay on RPMI-8226, in the assay with SK-MEL-28 and with MDA-MB-435 was > 100 µM (inactive) throughout. Besides, the GI50 with 786-0, in the assay with SNB-19, in the assay with U-251 and in the assay with NCI-H460 was > 100 µM (inactive) throughout.
Turning to `O=C(c1ccccc1)c1ccc2cccc(OC3OC(CO)C(O)C(O)C3O)c2n1` (stereo not drawn), the GI50 in the assay on K562 is > 100 µM (inactive); in the assay with SNB-75 it was 68.4 µM (inactive); in the assay on MOLT-4, > 100 µM (inactive); in the assay on HCC 2998, > 100 µM (inactive); with HT-29, > 100 µM (inactive); in the assay with SF-295 it was 51.5 µM (inactive). The GI50 in the assay with RXF 393, with RPMI-8226, with SK-MEL-28, in the assay with 786-0, in the assay on SNB-19 and in the assay with U-251 was > 100 µM (inactive) in each case. For the same compound, the figures for the GI50 with LOX IMVI, in the assay on SR and in the assay on NCI-H460 were > 100 µM (inactive), > 100 µM (inactive) and 74.6 µM (inactive), respectively.
For the compound `CCOC(=O)c1csc(NC(=O)CCN2CCOCC2)n1`, the GI50 with MDA-MB-231 was > 100 µM (inactive); in the assay on K562, 74.8 µM (inactive); in the assay with DU-145, 44.7 µM (inactive); in the assay on MOLT-4 it was 25.9 µM (inactive); in the assay on HCC 2998, > 100 µM (inactive); in the assay on PC-3 it was 67.6 µM (inactive). Further, the GI50 is 36.5 µM (inactive) in the assay with HT-29; > 100 µM (inactive) with SF-295; 75.5 µM (inactive) in the assay with RXF 393; 43.3 µM (inactive) in the assay on RPMI-8226; > 100 µM (inactive) in the assay with SK-MEL-28; > 100 µM (inactive) in the assay with MDA-MB-435. The GI50 with SNB-19 is > 100 µM (inactive); with U-251, > 100 µM (inactive); with LOX IMVI, 93.8 µM (inactive); with SR it was 66.2 µM (inactive); in the assay with NCI-H460 it was > 100 µM (inactive).
As to `S=C1NNC(=S)NN1`, the GI50 in the assay with MDA-MB-231 is > 1 µM (active); with K562, 0.178 µM (active); with DU-145, 0.316 µM (active); with MOLT-4 it was 0.258 µM (active); in the assay with HCC 2998 it was > 1 µM (active); in the assay with PC-3, > 1 µM (active). In addition, the GI50 is 0.23 µM (active) in the assay on HT-29; 0.219 µM (active) with SF-295; 0.288 µM (active) with RPMI-8226; > 1 µM (active) in the assay on SK-MEL-28; > 1 µM (active) with 786-0; > 1 µM (active) in the assay with SNB-19. Moreover, the GI50 in the assay on U-251 was 0.583 µM (active); in the assay with LOX IMVI, 0.18 µM (active); in the assay with SR, 0.239 µM (active); in the assay with Hs-578T, 0.697 µM (active); in the assay with NCI-H460 it was > 1 µM (active).
As for `CN1C(=O)CN2C(Cl)(Cl)C2(c2ccccc2F)c2cc([N+](=O)[O-])ccc21` (stereo not drawn), the GI50 in the assay with K562 is 36.8 µM (inactive); with SNB-75, 17.5 µM (inactive); in the assay on MOLT-4 it was 17.3 µM (inactive); with HCC 2998 it was 22.7 µM (inactive); with HT-29, 39.1 µM (inactive); with SF-295, 80.4 µM (inactive). The GI50 with RXF 393 was 14.6 µM (inactive); in the assay with RPMI-8226, 40.8 µM (inactive); with SK-MEL-28, > 100 µM (inactive); with U-251 it was 57.1 µM (inactive); in the assay on LOX IMVI, 35.7 µM (inactive); in the assay on SR, 33 µM (inactive). Further, the GI50 in the assay with NCI-H460 was 33.2 µM (inactive).
With `O=C(/C=C/C1C(=O)NC(=O)NC1=O)CC(=O)C(=O)Nc1cc(Cl)c(Cl)cc1Cl`, the GI50 with K562, with SNB-75, in the assay with MOLT-4, with HCC 2998, with HT-29 and with SF-295 was > 100 µM (inactive) each time. Moreover, the GI50 with RXF 393, with RPMI-8226, in the assay with SK-MEL-28, in the assay on 786-0, with SNB-19 and in the assay with U-251 was > 100 µM (inactive) throughout. Also, the GI50 in the assay with LOX IMVI, with SR and in the assay on NCI-H460 was > 100 µM (inactive) throughout.
Consider `Cc1ccc(C2C(Cl)C(=O)N2n2cnc3ccccc3c2=O)cc1` (stereo not drawn), for which the GI50 in the assay with K562 is 52.2 µM (inactive); in the assay on SNB-75, 91.6 µM (inactive); with MOLT-4, 39.4 µM (inactive); in the assay with HCC 2998, > 100 µM (inactive); with HT-29, > 100 µM (inactive); in the assay with SF-295, > 100 µM (inactive). Further, the GI50 in the assay on RXF 393 was > 100 µM (inactive); in the assay on RPMI-8226, 37.3 µM (inactive); in the assay with SK-MEL-28, > 100 µM (inactive); in the assay with 786-0, > 100 µM (inactive); in the assay on SNB-19, 44 µM (inactive); in the assay on U-251 it was > 100 µM (inactive). Also, the GI50 is > 100 µM (inactive) in the assay on LOX IMVI, 21.5 µM (inactive) with SR and > 100 µM (inactive) with NCI-H460.
Take `CC1(C)OP(=O)(c2ccccc2)C=C1Br` (stereo not drawn): the GI50 in the assay on K562, with DU-145, with SNB-75, in the assay on HCC 2998, in the assay on PC-3 and with HT-29 was > 100 µM (inactive) throughout. Further, the GI50 is > 100 µM (inactive) in the assay on SF-295; 0.348 µM (active) with RPMI-8226; > 100 µM (inactive) in the assay with SK-MEL-28; > 100 µM (inactive) with MDA-MB-435; > 100 µM (inactive) with 786-0; > 100 µM (inactive) with SNB-19. Moreover, the GI50 with U-251, in the assay with LOX IMVI, in the assay with SR, in the assay on Hs-578T and with NCI-H460 was > 100 µM (inactive) throughout.
Consider `NC(=O)c1cnc2sc3ccccc3n2c1=O`, for which the GI50 with MDA-MB-231, in the assay with K562, with DU-145, in the assay on SNB-75, with MOLT-4 and in the assay on HCC 2998 was > 100 µM (inactive) throughout. In addition, the GI50 in the assay on PC-3, in the assay on HT-29, with SF-295, in the assay on RXF 393, with RPMI-8226 and in the assay on SK-MEL-28 was > 100 µM (inactive) in each case. For the same compound, the GI50 in the assay with 786-0 is > 100 µM (inactive); with SNB-19 it was > 100 µM (inactive); with LOX IMVI, > 100 µM (inactive); in the assay with SR it was > 100 µM (inactive); with Hs-578T, 26.4 µM (inactive); in the assay on NCI-H460, > 100 µM (inactive).
